These are literature values, as cited in patent publication US20200404921A1, “SOIL TREATMENT WITH METAM SALTS AND ONE OR MORE OF CALCIUM THIOSULFATE, CALCIUM CHLORIDE AND CALCIUM NITRATE” (Tessenderlo Kerley, Inc., priority 2018, published 2020).

One data set relates to soilborne disease. The following applies: about 40 gallons of metam sodium per acre (190 Kg of active ingredient/ha), commercial conditions.
The conditions of data set [1]: more soluble than gypsum.

In the case of `CNC(=S)S` [metam sodium, sodium methyldithiocarbamate], the “reduction of certain soilborne disease” value in the data set on soilborne disease is approximately 70%. Turning to `O=S([O-])([O-])=S.[Ca+2]` [calcium thiosulfate], in data set [1], the “solubility relative to gypsum” value is 125 times.
